Data taken from ChEMBL document CHEMBL5537172 (J Med Chem, 2024).
Active and inactive are the calls of the source. The calls are words filed in the database; no cut-off is given here.

Key:
[1] = Half-life in rat at 1 mg/kg, iv measured upto 24 hrs by LC-MS/MS analysis; format: ADME, organism-based; details: in vivo
[2] = molecular target: T1, Protein kinase C epsilon type (Homo sapiens, UniProt Q02156); assay: Inhibition of PKCepsilon (unknown origin)
T1 sequence (Q02156 whole entry): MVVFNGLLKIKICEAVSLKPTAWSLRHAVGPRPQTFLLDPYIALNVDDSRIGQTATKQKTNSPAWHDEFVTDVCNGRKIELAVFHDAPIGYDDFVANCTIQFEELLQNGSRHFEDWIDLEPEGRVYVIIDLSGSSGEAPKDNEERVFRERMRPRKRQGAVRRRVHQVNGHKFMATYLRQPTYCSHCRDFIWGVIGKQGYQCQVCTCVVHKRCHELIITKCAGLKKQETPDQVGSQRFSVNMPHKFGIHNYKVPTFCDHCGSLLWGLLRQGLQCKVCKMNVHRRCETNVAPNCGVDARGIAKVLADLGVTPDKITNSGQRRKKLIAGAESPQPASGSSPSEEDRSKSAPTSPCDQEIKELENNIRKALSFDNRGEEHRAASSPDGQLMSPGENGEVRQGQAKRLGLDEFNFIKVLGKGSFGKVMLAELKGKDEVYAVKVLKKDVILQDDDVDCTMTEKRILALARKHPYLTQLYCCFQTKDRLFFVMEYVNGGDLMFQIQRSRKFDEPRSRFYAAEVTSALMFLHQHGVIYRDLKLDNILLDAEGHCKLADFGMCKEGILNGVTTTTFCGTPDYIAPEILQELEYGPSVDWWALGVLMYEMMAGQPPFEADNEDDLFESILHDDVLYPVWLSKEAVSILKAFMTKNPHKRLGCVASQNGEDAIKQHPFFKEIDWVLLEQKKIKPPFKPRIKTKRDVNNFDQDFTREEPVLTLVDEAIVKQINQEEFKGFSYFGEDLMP

[3] = Cmax in mouse at 10 mg/kg, po measured upto 24 hrs by LC-MS/MS analysis; format: ADME, organism-based; details: in vivo
92-1 [4] = assay: Antitumor activity against human 92-1 cells xenografted in po dosed mouse assessed as tumor suppression administered twice daily; format: functional, organism-based; details: dose lower […], dose upper 75.0 mg/kg
92-1 [5] = assay: Antitumor activity against human 92-1 cells xenografted in mouse assessed as tumor suppression at 75 to 150 mg/kg, po administered twice daily; format: functional, organism-based; details: dose lower 75.0 mg/kg, dose upper […]
[6] = molecular target: Protein kinase C delta type (Homo sapiens, UniProt Q05655); assay: Inhibition of PKCdelta (unknown origin)
Chain of Protein kinase C delta type (Q05655 whole entry): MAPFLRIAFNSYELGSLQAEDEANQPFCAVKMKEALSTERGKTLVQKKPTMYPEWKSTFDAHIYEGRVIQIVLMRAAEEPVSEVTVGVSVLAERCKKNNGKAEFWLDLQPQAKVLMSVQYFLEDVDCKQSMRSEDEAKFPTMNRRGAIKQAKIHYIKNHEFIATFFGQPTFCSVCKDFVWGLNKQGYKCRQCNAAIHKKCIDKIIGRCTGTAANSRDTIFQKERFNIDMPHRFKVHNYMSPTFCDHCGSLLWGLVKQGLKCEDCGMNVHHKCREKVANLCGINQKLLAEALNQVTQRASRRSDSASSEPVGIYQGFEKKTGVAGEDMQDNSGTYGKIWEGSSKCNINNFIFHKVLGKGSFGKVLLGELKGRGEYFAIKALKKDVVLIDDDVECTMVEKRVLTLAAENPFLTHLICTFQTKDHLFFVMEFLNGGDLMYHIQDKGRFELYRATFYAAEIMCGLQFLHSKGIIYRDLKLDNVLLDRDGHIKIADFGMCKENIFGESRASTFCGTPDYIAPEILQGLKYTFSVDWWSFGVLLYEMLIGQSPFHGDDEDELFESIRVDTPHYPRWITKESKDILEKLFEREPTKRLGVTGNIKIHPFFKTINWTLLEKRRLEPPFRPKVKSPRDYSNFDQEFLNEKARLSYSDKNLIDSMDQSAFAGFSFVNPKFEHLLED

[7] = Cmax in rat at 3 mg/kg, po measured upto 24 hrs by LC-MS/MS analysis; format: ADME, organism-based; details: in vivo
[8] = Oral bioavailability in dog at 3 mg/kg measured upto 24 hrs by LC-MS/MS analysis; format: ADME, organism-based, Canis lupus familiaris; details: in vivo
[9] = Volume of distribution at steady state in mouse at 1 mg/kg, iv measured upto 24 hrs by LC-MS/MS analysis; format: ADME, organism-based; details: in vivo, read-out: Vdss
[10] = Toxicity in mouse xenografted with human 92-1 cells assessed as body weight loss at 15 to 150 mg/kg, po bid; format: organism-based; details: in vivo, dose 15-150 mg/kg
[11] = Volume of distribution at steady state in rat at 1 mg/kg, iv measured upto 24 hrs by LC-MS/MS analysis; format: ADME, organism-based; details: in vivo, read-out: Vdss
[12] = molecular target: 5-hydroxytryptamine receptor 2B (Homo sapiens, UniProt P41595); assay: Agonist activity at 5HT2B (unknown origin); format: toxicity
Chain of 5-hydroxytryptamine receptor 2B (P41595 whole entry): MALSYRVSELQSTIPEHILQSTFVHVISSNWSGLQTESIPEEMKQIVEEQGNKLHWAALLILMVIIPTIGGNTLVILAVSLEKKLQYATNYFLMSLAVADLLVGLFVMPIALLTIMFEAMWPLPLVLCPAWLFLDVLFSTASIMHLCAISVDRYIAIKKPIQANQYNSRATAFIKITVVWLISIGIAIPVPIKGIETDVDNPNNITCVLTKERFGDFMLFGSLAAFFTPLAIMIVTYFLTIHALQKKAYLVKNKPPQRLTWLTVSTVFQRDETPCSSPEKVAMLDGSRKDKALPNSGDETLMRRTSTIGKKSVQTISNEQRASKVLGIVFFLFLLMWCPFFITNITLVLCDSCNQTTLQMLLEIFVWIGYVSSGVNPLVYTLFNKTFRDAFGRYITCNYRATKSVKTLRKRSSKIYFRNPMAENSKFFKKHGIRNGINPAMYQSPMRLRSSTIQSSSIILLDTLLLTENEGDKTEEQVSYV

[13] = Oral bioavailability in rat at 3 mg/kg measured upto 24 hrs by LC-MS/MS analysis; format: ADME, organism-based; details: in vivo
92-1 [14] = assay: Antitumor activity against human 92-1 cells xenografted in mouse assessed as tumor suppression at 75 mg/kg, po administered twice daily measured after compound withdrawal; format: functional, organism-based
[15] = Half-life in dog at 0.3 mg/kg, iv measured upto 24 hrs by LC-MS/MS analysis; format: ADME, organism-based, Canis lupus familiaris; details: in vivo
[16] = molecular target: Protein kinase C eta type (Homo sapiens, UniProt P24723); assay: Inhibition of PKCeta (unknown origin)
Chain of Protein kinase C eta type (P24723 whole entry): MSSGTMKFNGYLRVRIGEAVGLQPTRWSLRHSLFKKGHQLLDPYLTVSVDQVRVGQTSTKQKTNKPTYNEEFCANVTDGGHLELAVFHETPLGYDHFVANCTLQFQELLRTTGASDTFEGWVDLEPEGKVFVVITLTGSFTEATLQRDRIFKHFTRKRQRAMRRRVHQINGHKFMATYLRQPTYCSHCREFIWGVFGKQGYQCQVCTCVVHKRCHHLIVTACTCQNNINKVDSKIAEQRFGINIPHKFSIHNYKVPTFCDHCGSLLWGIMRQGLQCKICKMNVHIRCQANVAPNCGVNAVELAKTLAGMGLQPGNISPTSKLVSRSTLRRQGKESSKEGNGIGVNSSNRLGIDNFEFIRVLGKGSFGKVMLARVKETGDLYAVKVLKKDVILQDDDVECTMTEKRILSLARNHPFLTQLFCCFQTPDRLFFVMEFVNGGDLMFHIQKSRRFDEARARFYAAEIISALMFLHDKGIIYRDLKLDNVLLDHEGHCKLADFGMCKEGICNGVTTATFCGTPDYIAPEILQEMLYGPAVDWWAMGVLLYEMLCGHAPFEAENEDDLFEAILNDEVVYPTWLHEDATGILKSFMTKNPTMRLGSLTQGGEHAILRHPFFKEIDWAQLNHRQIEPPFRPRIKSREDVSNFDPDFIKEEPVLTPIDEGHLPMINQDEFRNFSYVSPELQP

[17] = AUCinfinity in mouse at 1 mg/kg, iv measured upto 24 hrs by LC-MS/MS analysis; format: ADME, organism-based; details: in vivo
[18] = Tmax in dog at 3 mg/kg, po measured upto 24 hrs by LC-MS/MS analysis; format: ADME, organism-based, Canis lupus familiaris; details: in vivo
[19] = Tmax in rat at 3 mg/kg, po measured upto 24 hrs by LC-MS/MS analysis; format: ADME, organism-based; details: in vivo
[20] = AUCinfinity in rat at 3 mg/kg, po measured upto 24 hrs by LC-MS/MS analysis; format: ADME, organism-based; details: in vivo
[21] = AUCinfinity in rat at 1 mg/kg, iv measured upto 24 hrs by LC-MS/MS analysis; format: ADME, organism-based; details: in vivo
[22] = Half life in mouse at 1 mg/kg, iv measured upto 24 hrs by LC-MS/MS analysis; format: ADME, organism-based; details: in vivo
[23] = Oral bioavailability in mouse at 10 mg/kg measured upto 24 hrs by LC-MS/MS analysis; format: ADME, organism-based; details: in vivo
[24] = AUCinfinity in mouse at 10 mg/kg, po measured upto 24 hrs by LC-MS/MS analysis; format: ADME, organism-based; details: in vivo
[25] = Dissociation constant, pKa of compound; format: physicochemical
[26] = Clearance in mouse at 1 mg/kg, iv measured upto 24 hrs by LC-MS/MS analysis; format: ADME, organism-based; details: in vivo
SK-MEL-28 = assay: cells; details: Homo sapiens
[27] = Cmax in dog at 3 mg/kg, po measured upto 24 hrs by LC-MS/MS analysis; format: ADME, organism-based, Canis lupus familiaris; details: in vivo
[28] = molecular target: T2, Protein kinase C beta type (Homo sapiens, UniProt P05771); assay: Inhibition of PKCbeta1 (unknown origin)
T2 sequence (P05771 whole entry): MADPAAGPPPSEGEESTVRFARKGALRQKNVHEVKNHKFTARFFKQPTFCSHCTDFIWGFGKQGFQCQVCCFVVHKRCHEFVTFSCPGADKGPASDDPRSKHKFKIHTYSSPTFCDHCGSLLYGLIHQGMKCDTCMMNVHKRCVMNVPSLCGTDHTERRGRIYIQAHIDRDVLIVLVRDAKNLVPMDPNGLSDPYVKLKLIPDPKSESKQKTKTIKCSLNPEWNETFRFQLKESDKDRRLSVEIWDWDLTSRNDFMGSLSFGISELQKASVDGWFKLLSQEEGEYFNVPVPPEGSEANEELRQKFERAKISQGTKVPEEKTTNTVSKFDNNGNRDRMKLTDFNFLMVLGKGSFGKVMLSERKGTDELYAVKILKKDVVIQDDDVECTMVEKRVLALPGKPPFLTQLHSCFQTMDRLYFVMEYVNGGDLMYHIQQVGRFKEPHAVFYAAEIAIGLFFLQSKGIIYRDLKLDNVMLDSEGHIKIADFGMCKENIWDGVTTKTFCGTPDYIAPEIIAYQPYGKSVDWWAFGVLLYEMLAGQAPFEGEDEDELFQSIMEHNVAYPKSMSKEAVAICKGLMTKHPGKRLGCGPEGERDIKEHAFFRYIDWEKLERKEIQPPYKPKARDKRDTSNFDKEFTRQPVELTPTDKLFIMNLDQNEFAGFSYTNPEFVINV

[29] = Toxicity in mouse xenografted with human 92-1 cells assessed as body weight loss at 75 to 150 mg/kg, po bid; format: organism-based; details: in vivo, dose 75-150 mg/kg
[30] = AUCinfinity in dog at 3 mg/kg, po measured upto 24 hrs by LC-MS/MS analysis; format: ADME, organism-based, Canis lupus familiaris; details: in vivo
[31] = AUCinfinity in dog at 0.3 mg/kg, iv measured upto 24 hrs by LC-MS/MS analysis; format: ADME, organism-based, Canis lupus familiaris; details: in vivo
[32] = Clearance in rat at 1 mg/kg, iv measured upto 24 hrs by LC-MS/MS analysis; format: ADME, organism-based; details: in vivo
[33] = Clearance in dog at 0.3 mg/kg, iv measured upto 24 hrs by LC-MS/MS analysis; format: ADME, organism-based, Canis lupus familiaris; details: in vivo
[34] = Volume of distribution at steady state in dog at 0.3 mg/kg, iv measured upto 24 hrs by LC-MS/MS analysis; format: ADME, organism-based, Canis lupus familiaris; details: in vivo, read-out: Vdss
[35] = molecular target: T2, Protein kinase C beta type; assay: Inhibition of PKCbeta2 (unknown origin)
Mus musculus = assay: In vivo inhibition of PKCdelta in mouse xenografted with human 92-1 cells assessed as reduction in phosphorylated levels at 15 to 72 mg/kg, po; format: functional, organism-based; details: dose lower […], dose upper […]
[36] = molecular target: Protein kinase C gamma type (Homo sapiens, UniProt P05129); assay: Inhibition of PKCgamma (unknown origin)
cells = details: Homo sapiens, 92-1, 72 h
[37] = Tmax in mouse at 10 mg/kg, po measured upto 24 hrs by LC-MS/MS analysis; format: ADME, organism-based; details: in vivo

Q: With `CC1(N)CCN(c2cccnc2NC(=O)c2nc(-c3ncccc3C(F)(F)F)cnc2N)CC1` [DAROVASERTIB] as the molecule, how does the half-life [1] read?
A: Its half-life is 5.7 h.

Q: And the IC50 [2]?
A: The IC50 was 0.0029 µM.

Q: And the Cmax [3]?
A: The Cmax was 667 nM.

Q: And the Activity (92-1 [4])?
A: Its Activity is “Dose-Dependent Effect”.

Q: What about the Activity (92-1 [5]) of the same molecule?
A: Its Activity is “Active”.

Q: And the IC50 [6]?
A: The IC50 was 0.0069 µM.

Q: What about the Cmax [7] of the same molecule?
A: Its Cmax is 509 nM.

Q: And the bioavailability [8]?
A: The bioavailability was 76%.

Q: And the Vd [9]?
A: Its Vd is 1.6 L/kg.

Q: What about the Activity [10] of the same molecule?
A: Its Activity is “Non-Toxic”.

Q: And the Vd [11]?
A: The Vd was 3.4 L/kg.

Q: And the EC50 [12]?
A: Its EC50 is > 30 µM.

Q: What about the bioavailability [13] of the same molecule?
A: The bioavailability was 55%.

Q: What about the Activity (92-1 [14]) of the same molecule?
A: The Activity was “inactive”.

Q: And the half-life [15]?
A: Its half-life is 4.4 h.

Q: And the IC50 [16]?
A: The IC50 was 0.0133 µM.

Q: What about the AUC(0-inf) [17] of the same molecule?
A: The AUC(0-inf) was 1.36 µM·h.

Q: And the Tmax [18]?
A: The Tmax was 0.5 h.

Q: What about the Tmax [19] of the same molecule?
A: The Tmax was 0.3 h.

Q: And the AUC(0-inf) [20]?
A: Its AUC(0-inf) is 2.39 µM·h.

Q: And the AUC(0-inf) [21]?
A: The AUC(0-inf) was 1.45 µM·h.

Q: What about the half-life [22] of the same molecule?
A: Its half-life is 1.1 h.

Q: And the bioavailability [23]?
A: The bioavailability was 17%.

Q: And the AUC(0-inf) [24]?
A: Its AUC(0-inf) is 2.17 µM·h.

Q: And the pKa [25]?
A: The pKa was 9.

Q: What about the clearance [26] of the same molecule?
A: Its clearance is 26 mL/min/kg.

Q: What about the IC50 (SK-MEL-28) of the same molecule?
A: Its IC50 is > 10 µM.

Q: What about the Cmax [27] of the same molecule?
A: The Cmax was 6120 nM.

Q: And the IC50 [28]?
A: The IC50 was 0.066 µM.

Q: What about the Activity [29] of the same molecule?
A: Its Activity is “Non-Toxic”.

Q: And the AUC(0-inf) [30]?
A: The AUC(0-inf) was 21.4 µM·h.

Q: What about the AUC(0-inf) [31] of the same molecule?
A: Its AUC(0-inf) is 2.59 µM·h.

Q: And the clearance [32]?
A: The clearance was 24 mL/min/kg.

Q: And the clearance [33]?
A: The clearance was 5 mL/min/kg.

Q: And the Vd [34]?
A: The Vd was 1.4 L/kg.

Q: What about the IC50 [35] of the same molecule?
A: Its IC50 is 0.058 µM.

Q: What about the Activity (Mus musculus) of the same molecule?
A: The Activity was “Active”.

Q: What about the IC50 [36] of the same molecule?
A: Its IC50 is 0.109 µM.

Q: What about the EC50 (cells) of the same molecule?
A: Its EC50 is 0.17 µM.

Q: What about the Tmax [37] of the same molecule?
A: The Tmax was 2 h.
